# Reference: paper PMC3400037, “Application of a single-objective, hybrid genetic algorithm approach to pharmacokinetic model building” (Journal of Pharmacokinetics and Pharmacodynamics, 2012)
# Read-outs that look alike come from different tables or passages of the source.
# Key:
# clinical = conditions: human, in vivo, iv
# [1] = human, in vivo
# [2] = Population pharmacokinetic model of clinical plasma concentration data, manual stepwise forward inclusion/backward elimination (NONMEM); format: in vivo, human; conditions: final stepwise model, IV
# Description: Manual stepwise model results were taken from the literature or were generated from unpublished data (DMAG) or data reported elsewhere in the literature. These models were determined using similar methods. Briefly, for each compound, a covariate free model was used to select the model compartment structure with the combination of inter-individual and residual variability structures resulting in the lowest objective function value calculated by NONMEM (twice the negative log likelihood plus a fixed constant offset) and a reasonable distribution of residuals as the base model.
# Univariate evaluations of covariates were then performed. […] The covariate and its function form that (1) yielded the lowest objective function conditional on (2) improved the objective function value by at least 3.84 (citalopram, DMAG, and [14, 15, 17, 21]) or 7.88 [16] points compared to the base model (which corresponds to Chi-squared values of p = 0.05 and p = 0.005 with one degree of freedom, respectively) and (3) in which there appeared to be a graphical relationship between the deviation in an individual predicted value and the covariate value across individual predicted values was included in the model. The remaining covariates were then included individually in the updated model, the inclusion criteria evaluated, and the model sequentially updated with additional covariates until no further covariates met the model inclusion criteria.
# Finally, individual covariates were removed from the final model and the change in the objective function was calculated. Covariates were excluded from the final model if, when the covariate was removed, the objective function value increased by less than 3.84 (citalopram, DMAG, [14, 15, 21]), 6.63 [17] (a Chi-squared value of p = 0.01 with one degree of freedom), or 7.88 [16]. Although the models were derived using different versions of NONMEM, the final models reported in the literature were re-run in NONMEM VI, Level 1.0 using Fortran G77 and NONMEM VII, version 7.2 with Intel Fortran to confirm that the results were independent of the NONMEM version.
# All continuous covariates were centered at zero.
# [3] = Population pharmacokinetic model of clinical plasma concentration data, single-objective hybrid genetic algorithm (SOHGA) coupled to NONMEM; conditions: best SOHGA candidate model
# [4] = final stepwise model, oral, cited from earlier work; for Volume of distribution (L)—TVV / Clearance (L/h)—TVCL: one compartment with absorption; for Volume of distribution (L)—TVV: (relative standard error; perphenazine: 95 % CI from bootstrapping); for Absorption rate constant (1/h)—TVKA: fixed based on literature, not estimated
# [5] = IV, three compartment, (relative standard error)
# [6] = three compartment, (relative standard error)
# [7] = CYP2C19 genotype, (relative standard error)
# [8] = 3 component mixture for clearance, FO, (relative standard error)
# [9] = 3 component mixture for clearance
# [10] = oral, one compartment with absorption, (relative standard error)
compound,measurement,setting,value
"CN(C)CCCC1(c2ccc(F)cc2)OCc2cc(C#N)ccc21 (stereo not shown) [Citalopram, citalopram]",clearance,clinical,20.3 mL/min
same,Central volume (L)—TVV1,[1]; iv,82.1 (17.7 %) L
same,Inter-comp clearance (L/h)—TVQ,[1]; iv,6.26 (19.0 %) L/h
same,Inter-individual variability—ωQ of ηQ,[1]; iv,35.5 % (19.0 %)
same,Inter-individual variability—ωV1 of ηV1,[1]; iv,46.2 % (15.5 %)
same,Inter-individual variability—ωV2 of ηV2,[1]; iv,25.4 % (12.5 %)
same,Peripheral volume (L)—TVV2,[1]; iv,205 (12.6 %) L
same,Inter-individual variability—ωQ of ηQ,[2]; standard deviation ω,48.5 % (NA)
same,Inter-individual variability—ωV1 of ηV1,[2]; standard deviation ω,12.2 % (NA)
same,Inter-individual variability—ωV2 of ηV2,[2]; standard deviation ω,22.6 % (NA)
same,Central volume (L)—TVV1,[2]; two compartment,2.87 (NA) L
same,Peripheral volume (L)—TVV2,[2]; two compartment,"1,510 (NA) L"
same,clearance,"[2]; human, plasma, 0.33 mg/kg lean body mass, typical value (relative standard error), read-out: Clearance (L/h)—TVCL (converted)",7.11 L/h
"CO[C@H]1/C=C\C=C(/C)C(=O)NC2=CC(=O)C(NCCN(C)C)=C(C[C@@H](C)C[C@H](OC)[C@H](O)[C@@H](C)/C=C(\C)[C@@H]1OC(N)=O)C2=O [DMAG, 17-(dimethylaminoethylamio)-17-demethoxygeldanamycin]",Inter-individual variability—ωV1 of ηV1,[3]; IV,39.7 % (24.5 %)
same,Inter-individual variability—ωV2 of ηV2,[3]; IV,42.3 % (24.8 %)
same,"Inter-occasion variability—ωCL of ηOCC,CL",[3]; IV,8.3 % (38.6 %)
same,"Inter-occasion variability—ωQ1 of ηOCC,Q1",[3]; IV,14.0 % (32.7 %)
same,Inter-patient variability—ωCL of ηCL,[3]; IV,22.1 % (29.1 %)
same,First compartment volume (L)—TVV1,[3]; [5],28.1 (12.9 %) L
same,Second compartment volume (L)—TVV2,[3]; [5],77.9 (11.4 %) L
same,Third compartment volume (L)—TVV3,[3]; [5],86.4 (8.5 %) L
same,Clearance (L/h)—TVCL,"[3]; IV, typical value (relative standard error)",9.28 (7.9 %) L/h
same,Inter-occasion variability (first compartment volume),[2],59.7 % (31.2 %)
same,"Inter-occasion variability—ωQ1 of ηOCC,Q1",[2],32.6 % (37.2 %)
same,Inter-patient variability—ωQ2 of ηQ2,[2],75.8 % (32.0 %)
same,Inter-patient variability—ωV3 of ηV3,[2],67.5 % (37.3 %)
same,Inter-individual variability—ωV1 of ηV1,[2]; standard deviation ω,33.0 % (111.9 %)
same,Inter-individual variability—ωV2 of ηV2,[2]; standard deviation ω,50.7 % (23.7 %)
same,Inter-patient variability—ωCL of ηCL,[2]; standard deviation ω,53.8 % (22.9 %)
same,First compartment volume (L)—TVV1,[2]; [6],27.4 (11.7 %) L
same,Second compartment volume (L)—TVV2,[2]; [6],66.4 (10.1 %) L
same,Third compartment volume (L)—TVV3,[2]; [6],142 (13.5 %) L
same,Clearance (L/h)—TVCL,[2]; typical value (relative standard error),8.4 (11.2 %) L/h
"CN(C)CCC[C@@]1(c2ccc(F)cc2)OCc2cc(C#N)ccc21 [Escitalopram, escitalopram]",Absorption rate constant (1/h)—TVKA,[1]; po,0.594 (23.1 %) 1/h
same,Clearance (L/h)—TVCL,[1]; po,25.5 (5.3 %) L/h
same,Inter-individual variability—ωV of ηV,[1]; po,59.4 % (32.6 %)
same,Volume of distribution (L)—TVV,[1]; po,874 (11.8 %) L
same,"Clearance (L/h)—TVCL, Missing metabolizer information",[4]; (relative standard error),21.5 (7.80 %) L/h
same,"Clearance (L/h)—TVCL, Extensive metabolizer",[4]; [7],26 (7.20 %) L/h
same,"Clearance (L/h)—TVCL, Poor metabolizer",[4]; [7],19.8 (8.50 %) L/h
same,Inter-individual variability—ωV of ηV,[4],62.0 % (40.3 %)
same,Volume of distribution (L)—TVV,[4],947 (10.2 %) L
"Cc1cc2c(s1)Nc1ccccc1N=C2N1CCN(C)CC1 [Olanzapine, olanzapine]",Absorption rate constant (1/h)—TVKA,[1]; po,0.773 (70.4 %) 1/h
same,Clearance (L/h)—TVCL,[1]; po,21.1 (15.5 %) L/h
same,Inter-individual variability—ωCL of ηCL,[1]; po,64.7 % (17.2 %)
same,Volume of distribution (L)—TVV,[1]; po,"4,130 (48.9 %) L"
same,Inter-individual variability—ωCL of ηCL,[4],68%
same,Inter-individual variability—ωV of ηV,[4],86%
same,Absorption rate constant (1/h)—TVKA,[4],Fixed at 0.5 1/h
same,Clearance (L/h)—TVCL,[4]; (relative standard error),16.1 (7.3 %) L/h
same,Volume of distribution (L)—TVV,[4],"2,150 (26.0 %) L"
"OCCN1CCN(CCCN2c3ccccc3Sc3ccc(Cl)cc32)CC1 [Perphenazine, perphenazine]",Absorption rate constant (1/h)—TVKA,[1]; po,0.859 (80.7 %) 1/h
same,Clearance (L/h)—TVCL,[1]; po,354 (12.3 %) L/h
same,Inter-individual variability—ωCL of ηCL,[1]; po,78.8 % (11.4 %)
same,Volume of distribution (L)—TVV,[1]; po,1.10x10^7 (172 %) L
same,Clearance (L/h)—TVCL,[4]; (relative standard error),483 L/h
same,Volume of distribution (L)—TVV,[4],"18,200 (13,865 - 65,795) L"
"Cc1nc2n(c(=O)c1CCN1CCC(c3noc4cc(F)ccc34)CC1)CCCC2 [Risperidone, risperidone]",Absorption rate constant (1/h)—TVKA,[1]; po,0.184.(21.1 %) 1/h
same,Central volume—TVV1,[1]; po,96.6 (31.2 %)
same,"Clearance (L/h)—TVCL, Extensive metabolizer",[1]; po,122 (11.5 %) L/h
same,"Clearance (L/h)—TVCL, Intermediate metabolizer",[1]; po,34.9 (8.9 %) L/h
same,"Clearance (L/h)—TVCL, Poor metabolizer",[1]; po,12.4 (8.5 %) L/h
same,Inter-comp clearance—TVQ,[1]; po,27.1 (29.9 %)
same,Inter-individual variability—η^(V1),[1]; po,478 % (46.4 %)
same,Inter-individual variability—ωCL of ηCL,[1]; po,7.3 % (32.2 %)
same,Percent of subjects who were extensive metabolizers,[1]; po,41.4 % (8.6 %)
same,Percent of subjects who were poor metabolizers,[1]; po,22.4 % (4.4 %)
same,Peripheral volume—TVV2,[1]; po,"1.31x10^10 (1,000 %)"
same,"Clearance (L/h)—TVCL, Extensive metabolizer",[4]; [8],65.4 (9.9 %) L/h
same,"Clearance (L/h)—TVCL, Poor metabolizer",[4]; [8],12.9 (6.5 %) L/h
same,"Inter-individual variability—ωCL of ηCL, Extensive metabolizer",[4]; [9],56.6 % (16.8 %)
same,"Inter-individual variability—ωCL of ηCL, Poor metabolizer",[4]; [9],95.9 % (39.5 %)
same,Percent of subjects who were extensive metabolizers,[4]; [9],52.4 % (6.2 %)
same,Percent of subjects who were poor metabolizers,[4]; [9],41.2 % (8.1 %)
same,Inter-individual variability—ωKA of ηKA,[4],53.7 % (89.3 %)
same,Inter-individual variability—ωV of ηV,[4],36.1 % (24.4 %)
same,Absorption rate constant (1/h)—TVKA,[4],Fixed at 1.7 1/h
same,Volume of distribution (L)—TVV,[4],444 (17.8 %) L
"O=C1Cc2cc(CCN3CCN(c4nsc5ccccc45)CC3)c(Cl)cc2N1 [Ziprasidone, ziprasidone]",Clearance (L/h)—TVCL,[3]; [10],126 (9.0 %) L/h
same,Volume of distribution (L)—TVV,[3]; [10],"1,030 (12.4 %) L"
same,Absorption rate constant (1/h)—TVKA,[1]; po,0.424 (5.8 %) 1/h
same,Inter-individual variability—ωCL of ηCL,[1]; po,69.0 % (21.4 %)
same,Inter-individual variability—ωV of ηV,[1]; po,114 % (16.0 %)
same,Inter-individual variability—ωCL of ηCL,[4],64.8 % (25 %)
same,Inter-individual variability—ωV of ηV,[4],104.4 % (27 %)
same,Absorption rate constant (1/h)—TVKA,[4],Fixed at 0.5 1/h
same,Clearance (L/h)—TVCL,[4]; (relative standard error),122 (9 %) L/h
same,Volume of distribution (L)—TVV,[4],"1,060 (19 %) L"
